In patent publication US20210284639A1, “TYROSINE AMIDE DERIVATIVES AS RHO- KINASE INHIBITORS” (CHIESI FARMACEUTICI S.p.A., priority 2018, published 2021) one finds Ki data, which are given here for 25 compounds.

By Ki is commonly meant a measure of affinity in units of concentration, obtained from inhibition or displacement. Low readings indicate tighter binding, high ones weaker binding.

One assay deals with ROCK 1 (Rho kinase 1) (Homo sapiens, UniProt Q13464). As to the kind of experiment: In vitro inhibitory activity assay (ADP-Glo), Rho kinase 1. The note with it: Ki by Cheng-Prusoff from IC50; 10 μM ATP, 25° C. The assay is classed as biochemical. On the procedure:
(§1) In Vitro Inhibitory Activity Assay Description
(§2) The effectiveness of compounds of the present invention to inhibit Rho kinase activity can be determined in a 10 μl assay containing 40 mM Tris pH7.5, 20 mM MgCl2 0.1 mg/ml BSA, 50 μM DTT and 2.5 μM peptide substrate (Myelin Basic Protein) using an ADP-Glo kit (Promega). Compounds were dissolved in DMSO such that the final concentration of DMSO was 1% in the assay. All reactions/incubations are performed at 25° C. Compound (2 μl) and either Rho kinase 1 or 2 (4 μl) were mixed and incubated for 30 mins. Reactions were initiated by addition of ATP (4 μl) such that the final concentration of ATP in the assay was 10 μM. After a 1 hour incubation 10 μl of ADP-Glo Reagent was added and after a further 45 minute incubation 20 μl of Kinase Detection Buffer was added and the mixture incubated for a further 30 minutes. The luminescent signal was measured on a luminometer. […] Compounds were tested in dose-response format and the inhibition of kinase activity was calculated at each concentration of compound. To determine the IC50 (concentration of compound required to inhibit 50% of the enzyme activity) data were fit to a plot of % inhibition vs Log10 compound concentration using a sigmoidal fit with a variable slope and fixing the maximum to 100% and the minimum to 0%. To determine the Ki values the Cheng-Prusoff equation was utilized (Ki=IC50/(1+[S]/Km).

The target of a further assay is ROCK 2 (Rho kinase 2) (Homo sapiens, UniProt O75116). Briefly: In vitro inhibitory activity assay (ADP-Glo), Rho kinase 2. The note with it: Ki by Cheng-Prusoff from IC50; 10 μM ATP, 25° C. The assay is classed as biochemical. The procedure: as §1, §2
On the technique in general: In ADP-Glo the light output rises with the ADP produced.

Each structure is given as a SMILES string.

Chain of ROCK 2 (Rho kinase 2) (O75116 whole entry): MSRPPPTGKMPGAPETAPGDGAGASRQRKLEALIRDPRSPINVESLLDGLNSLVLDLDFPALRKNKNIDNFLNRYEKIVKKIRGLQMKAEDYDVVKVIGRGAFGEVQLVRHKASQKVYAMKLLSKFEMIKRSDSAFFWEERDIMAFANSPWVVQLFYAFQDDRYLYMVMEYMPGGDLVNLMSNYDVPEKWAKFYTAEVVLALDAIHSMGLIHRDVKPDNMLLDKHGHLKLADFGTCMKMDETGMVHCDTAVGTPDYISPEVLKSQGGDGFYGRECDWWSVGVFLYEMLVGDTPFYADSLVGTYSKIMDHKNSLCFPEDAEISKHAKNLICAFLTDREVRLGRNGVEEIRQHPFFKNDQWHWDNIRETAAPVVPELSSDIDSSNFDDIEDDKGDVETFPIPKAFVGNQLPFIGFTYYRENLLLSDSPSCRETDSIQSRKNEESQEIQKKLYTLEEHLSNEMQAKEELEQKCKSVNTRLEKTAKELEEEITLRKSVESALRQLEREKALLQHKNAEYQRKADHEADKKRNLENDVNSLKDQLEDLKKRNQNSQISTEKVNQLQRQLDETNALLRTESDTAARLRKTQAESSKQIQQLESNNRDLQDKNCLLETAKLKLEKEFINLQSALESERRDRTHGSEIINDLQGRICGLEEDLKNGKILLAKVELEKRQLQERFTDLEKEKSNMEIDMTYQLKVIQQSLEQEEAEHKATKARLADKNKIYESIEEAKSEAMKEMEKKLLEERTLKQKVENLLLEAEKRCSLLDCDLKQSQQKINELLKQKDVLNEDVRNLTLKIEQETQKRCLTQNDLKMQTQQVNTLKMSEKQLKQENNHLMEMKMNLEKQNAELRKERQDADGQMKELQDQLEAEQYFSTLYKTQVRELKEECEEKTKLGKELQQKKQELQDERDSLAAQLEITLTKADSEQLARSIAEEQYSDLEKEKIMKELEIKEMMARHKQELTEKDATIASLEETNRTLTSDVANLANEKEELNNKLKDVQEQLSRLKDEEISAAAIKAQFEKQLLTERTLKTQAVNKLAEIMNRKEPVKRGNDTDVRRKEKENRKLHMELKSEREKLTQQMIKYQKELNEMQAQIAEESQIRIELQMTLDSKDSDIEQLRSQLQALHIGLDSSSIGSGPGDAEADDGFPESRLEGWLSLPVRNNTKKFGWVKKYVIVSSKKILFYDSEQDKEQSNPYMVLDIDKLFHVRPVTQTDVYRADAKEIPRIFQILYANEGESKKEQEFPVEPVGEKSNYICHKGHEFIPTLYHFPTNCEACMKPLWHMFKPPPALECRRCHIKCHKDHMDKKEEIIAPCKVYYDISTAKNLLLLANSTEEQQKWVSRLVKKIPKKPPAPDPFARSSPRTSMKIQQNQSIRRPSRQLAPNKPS
Chain of ROCK 1 (Rho kinase 1) (Q13464 whole entry): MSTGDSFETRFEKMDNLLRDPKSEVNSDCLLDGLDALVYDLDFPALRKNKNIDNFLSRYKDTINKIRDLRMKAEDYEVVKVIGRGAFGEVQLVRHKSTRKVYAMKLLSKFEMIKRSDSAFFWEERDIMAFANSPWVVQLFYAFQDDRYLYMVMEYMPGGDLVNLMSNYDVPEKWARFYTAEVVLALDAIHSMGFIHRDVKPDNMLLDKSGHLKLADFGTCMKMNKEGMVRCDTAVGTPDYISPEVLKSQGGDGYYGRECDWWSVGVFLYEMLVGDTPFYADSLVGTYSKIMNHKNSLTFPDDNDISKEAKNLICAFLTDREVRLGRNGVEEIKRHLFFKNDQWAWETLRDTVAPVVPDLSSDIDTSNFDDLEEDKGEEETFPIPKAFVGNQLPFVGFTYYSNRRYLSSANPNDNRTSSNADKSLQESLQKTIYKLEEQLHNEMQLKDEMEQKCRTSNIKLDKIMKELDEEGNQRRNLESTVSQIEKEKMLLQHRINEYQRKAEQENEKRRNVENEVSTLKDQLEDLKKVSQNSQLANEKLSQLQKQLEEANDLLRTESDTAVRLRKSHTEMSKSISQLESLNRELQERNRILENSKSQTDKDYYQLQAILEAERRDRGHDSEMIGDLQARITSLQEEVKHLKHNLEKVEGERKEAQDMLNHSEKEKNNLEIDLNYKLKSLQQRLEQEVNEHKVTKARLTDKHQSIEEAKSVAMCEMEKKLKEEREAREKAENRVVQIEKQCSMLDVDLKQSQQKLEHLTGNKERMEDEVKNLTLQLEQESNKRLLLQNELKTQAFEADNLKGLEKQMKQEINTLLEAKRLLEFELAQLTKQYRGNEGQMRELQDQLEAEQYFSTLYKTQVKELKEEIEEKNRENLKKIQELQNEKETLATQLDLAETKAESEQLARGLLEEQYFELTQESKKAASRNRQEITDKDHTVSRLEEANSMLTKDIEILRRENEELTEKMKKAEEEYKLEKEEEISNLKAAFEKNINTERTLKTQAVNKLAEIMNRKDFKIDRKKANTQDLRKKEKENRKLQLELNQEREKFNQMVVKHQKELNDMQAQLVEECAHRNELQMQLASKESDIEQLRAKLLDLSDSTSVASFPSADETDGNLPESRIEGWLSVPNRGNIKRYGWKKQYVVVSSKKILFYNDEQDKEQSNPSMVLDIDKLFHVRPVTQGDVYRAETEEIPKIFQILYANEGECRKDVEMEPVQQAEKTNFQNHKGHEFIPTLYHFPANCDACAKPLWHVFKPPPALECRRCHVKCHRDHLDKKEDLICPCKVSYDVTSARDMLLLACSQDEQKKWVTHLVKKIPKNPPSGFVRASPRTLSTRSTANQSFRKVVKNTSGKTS

As to `Cc1c[nH]c2nccc(Oc3ccc(C[C@H](N)C(=O)NC4CCN(C)CC4(C)C)cc3F)c12` (single isomer, unassigned) [Example 8a], the Ki on ROCK 1 (Rho kinase 1) and at ROCK 2 (Rho kinase 2) was < 3 nM throughout.
Take `Cc1c[nH]c2nccc(Oc3ccc(C[C@H](N)C(=O)NC4CCN(C)CC4(C)C)cc3F)c12` (single isomer, unassigned) [Example 8b]: the Ki at ROCK 1 (Rho kinase 1) and on ROCK 2 (Rho kinase 2) was < 3 nM in each case.
Take `Cc1c[nH]c2nccc(Oc3ccc(C[C@H](N)C(=O)NC4CCCN(C)C4)cc3F)c12` (single isomer, unassigned) [Example 17]: the inhibition constant (Ki) on ROCK 1 (Rho kinase 1) and at ROCK 2 (Rho kinase 2) was 3 to 30 nM throughout.
Regarding `Cc1c[nH]c2nccc(Oc3ccc(C[C@H](N)C(=O)NC4CCCN(C)C4)cc3F)c12` (single isomer, unassigned) [Example 18], the Ki on ROCK 1 (Rho kinase 1) and at ROCK 2 (Rho kinase 2) was 3 to 30 nM throughout.
In the case of `Cc1c[nH]c2nccc(Oc3ccc(C[C@H](N)C(=O)NC4CCN(C5CCC5)CC4)cc3F)c12` [Example 1, (S)-2-Amino-N-(1-cyclobutylpiperidin-4-yl)-3-(3-fluoro-4-((3-methyl-1H-pyrrolo[2,3-b]pyridin-4-yl)oxy)phenyl)propanamide], the Ki on ROCK 1 (Rho kinase 1) and at ROCK 2 (Rho kinase 2) was < 3 nM throughout.
Turning to `Cc1c[nH]c2nccc(Oc3ccc(C[C@H](N)C(=O)NC4CCN(C5CCOC5)CC4)cc3F)c12` (stereo partly drawn) [Example 2, (2S)-2-Amino-3-(3-fluoro-4-((3-methyl-1H-pyrrolo[2,3-b]pyridin-4-yl)oxy)phenyl)-N-(1-(tetrahydrofuran-3-yl)piperidin-4-yl)propanamide], the Ki on ROCK 1 (Rho kinase 1) and on ROCK 2 (Rho kinase 2) was < 3 nM in each case.
Take `Cc1c[nH]c2nccc(Oc3ccc(C[C@H](N)C(=O)NC4CCN(C5COC5)CC4)cc3F)c12` [Example 3, (S)-2-Amino-3-(3-fluoro-4-((3-methyl-1H-pyrrolo[2,3-b]pyridin-4-yl)oxy)phenyl)-N-(1-(oxetan-3-yl)piperidin-4-yl)propanamide]: the Ki at ROCK 1 (Rho kinase 1) and on ROCK 2 (Rho kinase 2) was < 3 nM each time.
For the compound `Cc1c[nH]c2nccc(Oc3ccc(C[C@H](N)C(=O)NC4(C)CCN(C)CC4)cc3F)c12` [Example 4, (S)-2-Amino-N-(1,4-dimethylpiperidin-4-yl)-3-(3-fluoro-4-((3-methyl-1H-pyrrolo[2,3-b]pyridin-4-yl)oxy)phenyl)propanamide], the Ki on ROCK 1 (Rho kinase 1) and on ROCK 2 (Rho kinase 2) was < 3 nM in each case.
In the case of `Cc1c[nH]c2nccc(Oc3ccc(C[C@H](N)C(=O)NC4CCN(C5CC5)CC4)cc3F)c12` [Example 5, (S)-2-Amino-N-(1-cyclopropylpiperidin-4-yl)-3-(3-fluoro-4-((3-methyl-1H-pyrrolo[2,3-b]pyridin-4-yl)oxy)phenyl)propanamide], the Ki at ROCK 1 (Rho kinase 1) and on ROCK 2 (Rho kinase 2) was < 3 nM each time.
With `Cc1c[nH]c2nccc(Oc3ccc(C[C@H](N)C(=O)NC4CCN(CC(C)C)CC4)cc3F)c12` [Example 6, (S)-2-Amino-3-(3-fluoro-4-((3-methyl-1H-pyrrolo[2,3-b]pyridin-4-yl)oxy)phenyl)-N-(1-isobutylpiperidin-4-yl)propanamide], the Ki on ROCK 1 (Rho kinase 1) and on ROCK 2 (Rho kinase 2) was < 3 nM throughout.
For `CCN1CCC(NC(=O)[C@@H](N)Cc2ccc(Oc3ccnc4[nH]cc(C)c34)c(F)c2)CC1` [Example 7, (S)-2-Amino-N-(1-ethylpiperidin-4-yl)-3-(3-fluoro-4-((3-methyl-1H-pyrrolo[2,3-b]pyridin-4-yl)oxy)phenyl)propanamide], the inhibitory constant (Ki) at ROCK 1 (Rho kinase 1) and at ROCK 2 (Rho kinase 2) was < 3 nM throughout.
Turning to `Cc1c[nH]c2nccc(Oc3ccc(C[C@H](N)C(=O)N4CCC(O)(CO)CC4)cc3F)c12` [Example 9, (S)-2-Amino-3-(3-fluoro-4-((3-methyl-1H-pyrrolo[2,3-b]pyridin-4-yl)oxy)phenyl)-1-(4-hydroxy-4-(hydroxymethyl)piperidin-1-yl)propan-1-one], the Ki on ROCK 1 (Rho kinase 1) and at ROCK 2 (Rho kinase 2) was < 3 nM each time.
With `Cc1c[nH]c2nccc(Oc3ccc(C[C@H](N)C(=O)N[C@@H]4CCN(C)C4)cc3F)c12` [Example 10, (S)-2-Amino-3-(3-fluoro-4-((3-methyl-1H-pyrrolo[2,3-b]pyridin-4-yl)oxy)phenyl)-N-((R)-1-methylpyrrolidin-3-yl)propanamide], the Ki at ROCK 1 (Rho kinase 1) and at ROCK 2 (Rho kinase 2) was < 3 nM each time.
Consider `Cc1c[nH]c2nccc(Oc3ccc(C[C@H](N)C(=O)N4CCN(C)CC45CC5)cc3F)c12` [Example 11, (S)-2-Amino-3-(3-fluoro-4-((3-methyl-1H-pyrrolo[2,3-b]pyridin-4-yl)oxy)phenyl)-1-(7-methyl-4,7-diazaspiro[2.5]octan-4-yl)propan-1-one], for which the figures for the inhibitory constant (Ki) at ROCK 1 (Rho kinase 1) and at ROCK 2 (Rho kinase 2) were 3 to 30 nM and < 3 nM, respectively.
In the same order, the values of `Cc1c[nH]c2nccc(Oc3ccc(C[C@H](N)C(=O)N4C[C@@H]5CN(C6CC6)C[C@@H]5C4)cc3F)c12` [Example 12, (S)-2-Amino-1-((3aR,6aS)-5-cyclopropylhexahydropyrrolo[3,4-c]pyrrol-2(1H)-yl)-3-(3-fluoro-4-((3-methyl-1H-pyrrolo[2,3-b]pyridin-4-yl)oxy)phenyl)propan-1-one] are < 3 nM and < 3 nM.
The corresponding values for `Cc1c[nH]c2nccc(Oc3ccc(C[C@H](N)C(=O)N4C[C@@H]5C[C@H]4CN5C4CC4)cc3F)c12` [Example 13, (S)-2-Amino-1-((1S,4S)-5-cyclopropyl-2,5-diazabicyclo[2.2.1]heptan-2-yl)-3-(3-fluoro-4-((3-methyl-1H-pyrrolo[2,3-b]pyridin-4-yl)oxy)phenyl)propan-1-one] are < 3 nM and < 3 nM.
The corresponding values for `COCCN1CCC(NC(=O)[C@@H](N)Cc2ccc(Oc3ccnc4[nH]cc(C)c34)c(F)c2)CC1` [Example 14, (S)-2-Amino-3-(3-fluoro-4-((3-methyl-1H-pyrrolo[2,3-b]pyridin-4-yl)oxy)phenyl)-N-(1-(2-methoxyethyl)piperidin-4-yl)propanamide] are < 3 nM and < 3 nM.
`Cc1c[nH]c2nccc(Oc3ccc(C[C@H](N)C(=O)NC4CCN(CCCF)CC4)cc3F)c12` [Example 15, (S)-2-Amino-3-(3-fluoro-4-((3-methyl-1H-pyrrolo[2,3-b]pyridin-4-yl)oxy)phenyl)-N-(1-(3-fluoropropyl)piperidin-4-yl)propanamide]: the Ki on ROCK 1 (Rho kinase 1) and at ROCK 2 (Rho kinase 2) was < 3 nM in each case.
Turning to `Cc1c[nH]c2nccc(Oc3ccc(C[C@H](N)C(=O)NC4CCN(CC5CC5)CC4)cc3F)c12` [Example 16, (S)-2-Amino-N-(1-(cyclopropylmethyl)piperidin-4-yl)-3-(3-fluoro-4-((3-methyl-1H-pyrrolo[2,3-b]pyridin-4-yl)oxy)phenyl)propanamide], the Ki on ROCK 1 (Rho kinase 1) and at ROCK 2 (Rho kinase 2) was < 3 nM in each case.
On to `Cc1c[nH]c2nccc(Oc3ccc(C[C@H](N)C(=O)N4CCC(NC5CC5)CC4)cc3F)c12` [Example 19, (S)-2-Amino-1-(4-(cyclopropylamino)piperidin-1-yl)-3-(3-fluoro-4-((3-methyl-1H-pyrrolo[2,3-b]pyridin-4-yl)oxy)phenyl)propan-1-one], for which the inhibition constant (Ki) on ROCK 1 (Rho kinase 1) and on ROCK 2 (Rho kinase 2) was < 3 nM each time.
For `Cc1c[nH]c2nccc(Oc3ccc(C[C@H](N)C(=O)NC4(CO)CCN(C5CC5)CC4)cc3F)c12` [Example 20, (S)-2-Amino-N-(1-cyclopropyl-4-(hydroxymethyl)piperidin-4-yl)-3-(3-fluoro-4-((3-methyl-1H-pyrrolo[2,3-b]pyridin-4-yl)oxy)phenyl)propanamide], the Ki on ROCK 1 (Rho kinase 1) and on ROCK 2 (Rho kinase 2) was < 3 nM throughout.
Take `Cc1c[nH]c2nccc(Oc3ccc(C[C@H](N)C(=O)NC4(C(N)=O)CCN(C5CC5)CC4)cc3F)c12` [Example 21, (S)-4-(2-Amino-3-(3-fluoro-4-((3-methyl-1H-pyrrolo[2,3-b]pyridin-4-yl)oxy)phenyl)propanamido)-1-cyclopropylpiperidine-4-carboxamide]: the Ki on ROCK 1 (Rho kinase 1) and on ROCK 2 (Rho kinase 2) was < 3 nM each time.
Take `Cc1c[nH]c2nccc(Oc3ccc(C[C@H](N)C(=O)N4CCc5ccncc5C4)cc3F)c12` [Example 22, (S)-2-Amino-1-(3,4-dihydro-2,7-naphthyridin-2(1H)-yl)-3-(3-fluoro-4-((3-methyl-1H-pyrrolo[2,3-b]pyridin-4-yl)oxy)phenyl)propan-1-one]: the inhibition constant (Ki) at ROCK 1 (Rho kinase 1) and at ROCK 2 (Rho kinase 2) was < 3 nM in each case.
In the case of `Cc1c[nH]c2nccc(Oc3ccc(C[C@H](N)C(=O)N4CCc5cncnc5C4)cc3F)c12` [Example 23, (S)-2-Amino-1-(5,8-dihydropyrido[3,4-d]pyrimidin-7(6H)-yl)-3-(3-fluoro-4-((3-methyl-1H-pyrrolo[2,3-b]pyridin-4-yl)oxy)phenyl)propan-1-one], the Ki on ROCK 1 (Rho kinase 1) and at ROCK 2 (Rho kinase 2) was < 3 nM each time.
Turning to `Cc1c[nH]c2nccc(Oc3ccc(C[C@H](N)C(=O)N4CCc5ncsc5C4)cc3F)c12` [Example 24, (S)-2-Amino-1-(6,7-dihydrothiazolo[5,4-c]pyridin-5(4H)-yl)-3-(3-fluoro-4-((3-methyl-1H-pyrrolo[2,3-b]pyridin-4-yl)oxy)phenyl)propan-1-one], the Ki on ROCK 1 (Rho kinase 1) and at ROCK 2 (Rho kinase 2) was < 3 nM in each case.
